In brackets after ≈: the same amount, converted by molar mass. Where two headings read alike, the source gives them in different places.

Series [1] is classed as in vivo, human. The settings on record: mean (SD); for Cavg / Cmin / AUC / Cmax / half-life / Tmax: plasma; for Cavg / Cmin / Cmax: steady state; for AUC / Cmax / half-life / Tmax: human, oral; for AUC: AUCτ, AUC24 (ELX, TEZ) or AUC12 (IVA).
The test system of the next series is CFTR. The note with it: estimated from published data, compounds used concurrently; cited from earlier work.
A short description of series [2]: Tacrolimus concentration in transplant participants. The class given is in vivo, human. The note with it: Transplant (n=12), concurrent ETI, mean (SD).
Where [3] appears, read: Transplant group (n=12), concomitant tacrolimus.
Where [4] appears, read: T1/2, Non-transplant group (n=14).
Where [5] appears, read: T1/2, Transplant group (n=12), concomitant tacrolimus.

Take `Cc1nn(C)cc1S(=O)(=O)NC(=O)c1ccc(-n2ccc(OCC(C)(C)C(F)(F)F)n2)nc1N1C[C@@H](C)CC1(C)C` [Elexacaftor, elexacaftor]: in series [1] (Non-transplant group (n=14)), the CLss/F is recorded as 2.05(2.29) L/h, the V/F is on record as 107(155), the Cavg is given as 6398(3233) ng/mL and the Cmin was 4327(2359) ng/mL. Moreover, in series [1] (Non-transplant group (n=14)), the AUC stood at 154000 ng·h/mL, the peak level (Cmax) was 9080 ng/mL and the Tmax stood at 4.79 h. In series [1] (setting [3]), the CLss/F is listed as 1.23(0.79) L/h, the V/F is 37.4(15.0), the Cavg is 8339(3152) ng/mL and the Cmin is listed as 5632(2664) ng/mL. For the same compound, in series [1] (setting [3]), the AUC was found to be 200000 ng·h/mL, the highest level (Cmax) was 11400 ng/mL and the Tmax amounted to 7.33 h. For the same compound, in series [1] (setting [4]), the half-life is 35 h. Moreover, the half-life in series [1] (setting [5]) is 23.6 h. In the series on CFTR, the concentration giving a half-maximal response (EC50) is 0.5 µg/mL (≈ 0.837 µM) and the concentration for an effect of 90% (EC90) is 4.5 µg/mL (≈ 7.53 µM).
For `CC(C)(CO)c1cc2cc(NC(=O)C3(c4ccc5c(c4)OC(F)(F)O5)CC3)c(F)cc2n1C[C@@H](O)CO` [Tezacaftor, tezacaftor], in series [1] (Non-transplant group (n=14)), the CLss/F is recorded as 1.53(0.83) L/h, the V/F is 37.1(24.4), the Cavg was 3294(1314) ng/mL and the Cmin is listed as 1746(1050) ng/mL. Moreover, in series [1] (Non-transplant group (n=14)), the AUC was determined as 79000 ng·h/mL, the highest level (Cmax) was 7460 ng/mL and the time to peak (Tmax) amounted to 2.21 h. Also, in series [1] (setting [3]), the CLss/F is given as 1.54(1.07) L/h, the V/F is 47.5(59), the Cavg was 3403(1240) ng/mL and the Cmin is recorded as 2016(904) ng/mL. In series [1] (setting [3]), the area under the curve (AUC) worked out at 82000 ng·h/mL, the peak concentration (Cmax) was 6520 ng/mL and the time of peak concentration (Tmax) was found to be 3.08 h. Moreover, the half-life in series [1] (setting [4]) is 19 h. Also, the half-life in series [1] (setting [5]) was 21 h. Further, in the series on CFTR, the EC50 was 0.4 µg/mL (≈ 0.768 µM) and the concentration for an effect of 90% (EC90) is 3.5 µg/mL (≈ 6.72 µM).
Regarding `CC(C)(C)c1cc(C(C)(C)C)c(NC(=O)c2c[nH]c3ccccc3c2=O)cc1O` [Ivacaftor, ivacaftor], in series [1] (Non-transplant group (n=14)), the CLss/F is recorded as 27.9 (47.4) L/h, the V/F is given as 337 (441), the Cavg is given as 947 (507) ng/mL and the Cmin is 525 (325) ng/mL. In series [1] (Non-transplant group (n=14)), the exposure (AUC) was determined as 11400 ng·h/mL, the Cmax was found to be 1380 ng/mL and the Tmax was determined as 4 h. Further, in series [1] (Non-transplant group (n=14), listed as IVA), the Cmin is on record as 525 ng/mL. Moreover, in series [1] (setting [3]), the CLss/F is on record as 19.9 (15.5) L/h, the V/F was 168 (71), the Cavg was 833 (342) ng/mL and the Cmin was 467 (203) ng/mL. Further, in series [1] (setting [3]), the AUC came to 9900 ng·h/mL and the Tmax came to 4.6 h. The compound further gave a half-life in series [1] (setting [4]) of 9.4 h. This compound also gave a half-life in series [1] (setting [5]) of 7.8 h. In the series with CFTR, the EC50 was 0.04 µg/mL (≈ 0.102 µM) and the concentration for an effect of 90% (EC90) is 0.35 µg/mL (≈ 0.892 µM).
For `C=CC[C@@H]1/C=C(\C)C[C@H](C)C[C@H](OC)[C@H]2O[C@@](O)(C(=O)C(=O)N3CCCC[C@H]3C(=O)O[C@H](/C(C)=C/[C@@H]3CC[C@@H](O)[C@H](OC)C3)[C@H](C)[C@@H](O)CC1=O)[C@H](C)C[C@@H]2OC` [Tacrolimus, tacrolimus], the Tacrolimus concentration in series [2] was 6.5 (1.5) ng/mL.

The values above are taken from article PMC12829593 (Journal of cystic fibrosis : official journal of the …, 2025).
